Results published in patent US20260053812A1, “METHODS OF TREATING HYPERTENSION WITH A COMBINATION OF AN ALDOSTERONE SYNTHASE INHIBITOR AND A DIURETIC” (Mineralys Therapeutics, Inc., priority 2022, published 2026).
Where “and” joins values, the source holds several entries; their conditions need not be identical. Equal values may be shown once.

Experiment: Adverse events (TEAEs, SAEs, AESI; Safety Analysis Set)
[1] = Table 43, Part 1, 100 mg QD (N = 31)

From the text: In analyses performed on the Safety Analysis Set, subjects will be analyzed according to their actual treatment received.

SMILES: CC(=O)N[C@H]1CC[C@H](NC(=O)CN2CCN(c3nncc(-c4ccc(C)cc4)n3)CC2)CC1 [Compound A HBr]
- TEAE leading to permanent discontinuation from study drug, Vascular disorders, % (Part 1, Active (N = 133)): (2.3) %
- Subjects with TEAEs considered at least possibly related to study drug (Part 1, active drug, listed as lorundrostat): 27 (20.3%) subjects (%)
- AE requiring dose titration: Hyperkalemia (Part 1 All active, N 159): 6 (3.8%)
- AE requiring dose titration: Hyponatremia (Part 1 All active, N 159): 0
- AE requiring dose titration: Other possibly related (Part 1 All active, N 159): 0
- AE requiring dose titration: Other unrelated (Part 1 All active, N 159): 1 (0.6%)
- AE requiring study drug discontinuation: Hyperkalemia (Part 1 All active, N 159): 6 (3.8%)
- AE requiring study drug discontinuation: Hyponatremia (Part 1 All active, N 159): 0
- AE requiring study drug discontinuation: Hypotension (Part 1 All active, N 159): 2 (1.2%)
- AE requiring study drug discontinuation: Other possibly related (Part 1 All active, N 159): 1 (0.6%)
- AE requiring study drug discontinuation: Other unrelated (Part 1 All active, N 159): 11 (6.9%)
- Deaths (Part 1 or Part 2): No deaths
- Subjects with TEAE resulting in dose modification (Part 2): 7 subjects
- Muscle spasms (Part 2 100 mg QD cohort): 3 (9.7%) subjects (%)
- Subjects with ≥1 moderate on-treatment TEAE (Part 2 100 mg QD cohort): 12 (38.7%) subjects (%)
- AE requiring dose titration: Hyperkalemia (Part 2 100 mg QD, N 31): 1 (3.2%)
- AE requiring dose titration: Hyponatremia (Part 2 100 mg QD, N 31): 1 (3.2%)
- AE requiring dose titration: Other possibly related (Part 2 100 mg QD, N 31): 0
- AE requiring dose titration: Other unrelated (Part 2 100 mg QD, N 31): 0
- AE requiring study drug discontinuation: Hyperkalemia (Part 2 100 mg QD, N 31): 0
- AE requiring study drug discontinuation: Hyponatremia (Part 2 100 mg QD, N 31): 1 (3.4%)
- AE requiring study drug discontinuation: Hypotension (Part 2 100 mg QD, N 31): 1 (2.8%)
- AE requiring study drug discontinuation: Other possibly related (Part 2 100 mg QD, N 31): 0
- AE requiring study drug discontinuation: Other unrelated (Part 2 100 mg QD, N 31): 1 (2.8%)
- Subjects with any On-treatment TEAEs leading to withdrawal from study drug, % (Part 2, 100 mg QD (N = 31)): 6.5%
- TEAE leading to permanent withdrawal from study drug, Glomerular filtration rate decreased, % (Part 2, 100 mg QD (N = 31)): 3.2%
- TEAE leading to permanent withdrawal from study drug, Hyponatraemia, % (Part 2, 100 mg QD (N = 31)): 3.2%
- TEAE leading to permanent withdrawal from study drug, Investigations, % (Part 2, 100 mg QD (N = 31)): 3.2%
- TEAE leading to permanent withdrawal from study drug, Metabolism and nutrition disorders, % (Part 2, 100 mg QD (N = 31)): 3.2%
- TEAE leading to permanent withdrawal from study drug, Muscle spasms, % (Part 2, 100 mg QD (N = 31)): 3.2%
- TEAE leading to permanent withdrawal from study drug, Musculoskeletal and connective tissue disorders, % (Part 2, 100 mg QD (N = 31)): 3.2%
- Subjects with TEAEs considered at least possibly related to study drug (Part 2, lorundrostat): 9 subjects (%) and 9 (29.0%) subjects (%)
- On-treatment TEAE, Chronic kidney disease, % [1]: (6.5) %
- On-treatment TEAE, Chronic kidney disease, Mild, % [1]: (6.5) %
- On-treatment TEAE, Diarrhoea, % [1]: (6.5) %
- On-treatment TEAE, Diarrhoea, Mild, % [1]: (6.5) %
- On-treatment TEAE, Dizziness, % [1]: (6.5) %
- On-treatment TEAE, Dizziness, Mild, % [1]: (6.5) %
- On-treatment TEAE, Gastrointestinal disorders, % [1]: (16.1) %
- On-treatment TEAE, Gastrointestinal disorders, Mild, % [1]: (9.7) %
- On-treatment TEAE, Gastrointestinal disorders, Moderate, % [1]: (6.5) %
- On-treatment TEAE, Hyperkalaemia, % [1]: (25.8) %
- On-treatment TEAE, Hyperkalaemia, Mild, % [1]: (9.7) %
- On-treatment TEAE, Hyperkalaemia, Moderate, % [1]: (16.1) %
- On-treatment TEAE, Hyponatraemia, % [1]: (6.5) %
- On-treatment TEAE, Infections and infestations, % [1]: (16.1) %
- On-treatment TEAE, Infections and infestations, Mild, % [1]: (6.5) %
- On-treatment TEAE, Infections and infestations, Moderate, % [1]: (9.7) %
- On-treatment TEAE, Investigations, % [1]: (6.5) %
- On-treatment TEAE, Metabolism and nutrition disorders, % [1]: (32.3) %
- On-treatment TEAE, Metabolism and nutrition disorders, Mild, % [1]: (6.5) %
- On-treatment TEAE, Metabolism and nutrition disorders, Moderate, % [1]: (22.6) %
- On-treatment TEAE, Muscle spasms, % [1]: (9.7) %
- On-treatment TEAE, Muscle spasms, Moderate, % [1]: (6.5) %
- On-treatment TEAE, Musculoskeletal and connective tissue disorders, % [1]: (16.1) %
- On-treatment TEAE, Musculoskeletal and connective tissue disorders, Mild, % [1]: (6.5) %
- On-treatment TEAE, Musculoskeletal and connective tissue disorders, Moderate, % [1]: (9.7) %
- On-treatment TEAE, Nausea, % [1]: (6.5) %
- On-treatment TEAE, Nausea, Mild, % [1]: (6.5) %
- On-treatment TEAE, Nervous system disorders, % [1]: (6.5) %
- On-treatment TEAE, Nervous system disorders, Mild, % [1]: (6.5) %
- On-treatment TEAE, Renal and urinary disorders, % [1]: (6.5) %
- On-treatment TEAE, Renal and urinary disorders, Mild, % [1]: (6.5) %
- On-treatment TEAE, Urinary tract infection, % [1]: (6.5) %
- Subjects with any On-treatment TEAEs, Mild, % [1]: (19.4) %
- Subjects with any On-treatment TEAEs, Moderate, % [1]: (38.7) %
- Subjects with any On-treatment TEAEs, Severe, % [1]: (3.2) %
- AE requiring dose titration: Hyperkalemia (Total active, N 190): 7 (4.1%)
- AE requiring dose titration: Hyponatremia (Total active, N 190): 1 (0.5%)
- AE requiring dose titration: Other possibly related (Total active, N 190): 0
- AE requiring dose titration: Other unrelated (Total active, N 190): 1 (0.5%)
- AE requiring study drug discontinuation: Hyperkalemia (Total active, N 190): 6 (3.2%)
- AE requiring study drug discontinuation: Hyponatremia (Total active, N 190): 1 (0.5%)
- AE requiring study drug discontinuation: Hypotension (Total active, N 190): 3 (1.6%)
- AE requiring study drug discontinuation: Other possibly related (Total active, N 190): 1 (0.5%)
- AE requiring study drug discontinuation: Other unrelated (Total active, N 190): 12 (6.3%)
- Subjects who developed orthostatic hypotension (fall of 20 mmHg in SBP or 10 mmHg in DBP sitting to standing): three
- Subjects with hypotension related to treatment (two in 100 mg QD cohorts (Part 1, Part 2), one 12.5 mg BID, reversible with treatment cessation): three
- Overall safety and tolerability (whole study): safe and well tolerated
